# Results as given in patent publication US10654856B2, “Method for preparing pyrrolo[3,2-D]pyrimidine compound, and intermediates thereof” (CHIA TAI TIANQING PHARMACEUTICAL GROUP CO., LTD., priority 2016, dated 2020).
# Target: Toll-like receptor 7 (Homo sapiens (Human), UniProt Q9NYK1)
# Test: Toll-like receptor 7 in vitro receptor binding activity screen (HEK-blue hTLR7 cell, Quanti-Blue alkaline phosphatase readout)
# Format: cell-based
# Settings: 24 h incubation, read-out: TLR7 EC50
# Method: Toll-Like Receptor 7 and Toll-Like Receptor 8 In Vitro Receptor Binding Activity Screen
# HEK-blue hTLR7 cell and HEK-blue hTLR8 cell (available from InvivoGen)
# heat inactivated fetal bovine serum
# Anti Mycoplasma reagent Normocin™
# The structures of GS-9620 and R848 used are as follows, wherein the preparation of GS-9620 could be referred to the process disclosed in US20100143301; R848 was commercially available from ABGENT (IMG-2208, specification: 0.5 mg).
# 1. Preparation of 96-well compound plate:
# The compounds were gradient diluted with DMSO in 3-fold using liquid work station POD starting at a concentration of 10 mmol/L and 10 points were diluted (2nd column to 11th column, and each point was duplicated). At 12th column, 1 μL of 5 mg/mL positive compound R848 was added as positive control; and at 1st column, 1 μL of DMSO was added as negative control. Each well contained 1 μL of DMSO.
# 2. The cells in culture flask were collected and the cell density was diluted to 250,000 cells/mL.
# 3. 200 μL (50,000 cells/well) of cell suspension was added into prepared compound plate and the final concentration of DMSO in each well was 0.5%.
# 4. The culture plates containing cells and the compounds were incubated in CO2 incubator for 24 h at 37° C., 5% CO2.
# 5. After 24 h incubation, 20 μL of supernatant was removed from each well to a 96-well transparent assay plate. To each well of the assay plate was added 180 μL of Quanti-Blue reagent and the plate was incubated in an incubator at 37° C., 5% CO2 for 1 h.
# 6. After 1 h, the content of alkaline phosphatase in 20 μL of supernatant was determined using Microplate Reader OD650.
# 7. EC50 of each compound was obtained with Prism software.
# Chain of Toll-like receptor 7 (Q9NYK1 27-1049): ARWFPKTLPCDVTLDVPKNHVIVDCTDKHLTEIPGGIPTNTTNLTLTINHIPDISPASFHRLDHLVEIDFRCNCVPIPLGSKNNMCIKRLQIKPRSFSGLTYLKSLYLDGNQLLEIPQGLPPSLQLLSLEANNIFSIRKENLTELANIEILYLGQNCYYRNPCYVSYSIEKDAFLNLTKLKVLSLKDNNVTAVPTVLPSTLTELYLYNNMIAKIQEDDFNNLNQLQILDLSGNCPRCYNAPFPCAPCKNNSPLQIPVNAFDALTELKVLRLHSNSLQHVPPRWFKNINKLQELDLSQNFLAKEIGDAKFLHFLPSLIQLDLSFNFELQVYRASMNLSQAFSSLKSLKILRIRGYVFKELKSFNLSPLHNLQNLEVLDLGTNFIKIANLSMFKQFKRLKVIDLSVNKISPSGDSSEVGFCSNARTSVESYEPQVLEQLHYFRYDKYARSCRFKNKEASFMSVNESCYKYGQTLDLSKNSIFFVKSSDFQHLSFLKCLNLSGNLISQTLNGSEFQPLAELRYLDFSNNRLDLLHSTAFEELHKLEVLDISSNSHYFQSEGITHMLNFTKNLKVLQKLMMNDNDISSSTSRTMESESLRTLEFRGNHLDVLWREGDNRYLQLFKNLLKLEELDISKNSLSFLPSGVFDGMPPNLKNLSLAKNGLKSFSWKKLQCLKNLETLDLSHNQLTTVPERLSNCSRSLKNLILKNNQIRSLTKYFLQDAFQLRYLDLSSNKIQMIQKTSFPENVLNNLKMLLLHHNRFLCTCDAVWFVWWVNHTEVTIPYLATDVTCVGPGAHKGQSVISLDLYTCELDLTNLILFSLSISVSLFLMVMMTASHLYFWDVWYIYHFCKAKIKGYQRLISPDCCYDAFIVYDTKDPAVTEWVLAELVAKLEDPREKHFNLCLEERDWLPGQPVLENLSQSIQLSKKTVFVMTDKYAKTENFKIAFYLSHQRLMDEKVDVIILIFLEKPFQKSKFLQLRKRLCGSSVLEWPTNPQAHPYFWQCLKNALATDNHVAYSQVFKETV
row,Compound,EC50
1,CCCCOc1nc(N)c2[nH]cc(Cc3ccc(CN4CCOCC4)cc3)c2n1 [Compound 6],1000 to 50000 nM
2,CCCCOc1nc(N)c2[nH]cc(Cc3ccc(CN4CCC(O)C4)cc3)c2n1 (stereo not shown) [Compound 4],100 to 1000 nM
3,"CCCCOc1nc(N)c2[nH]cc(Cc3ccc(CN4CCCC4)cc3)c2n1 [Compound 1, 2-butoxy-7-(4-(pyrrolidin-1-ylmethyl)benzyl)-5H-pyrrolo[3,2-d]pyrimidin-4-amine]",100 to 1000 nM
4,CCCCOc1nc(N)c2[nH]cc(Cc3ccc(CN4CC(OC)C4)cc3)c2n1 [Compound 12],100 to 1000 nM
5,CCCCOc1nc(N)c2[nH]cc(Cc3ccc(CN4CCC(F)(F)C4)cc3)c2n1 [Compound 2],1000 to 50000 nM
6,CCCCOc1nc(N)c2[nH]cc(Cc3ccc(CN4CCC4)cc3)c2n1 [Compound 11],100 to 1000 nM
7,CCCCOc1nc(N)c2[nH]cc(Cc3ccc(CN(CC)CC)cc3)c2n1 [Compound 9],100 to 1000 nM
8,CCCCOc1nc(N)c2[nH]cc(Cc3ccc(CN4CC(C)OC(C)C4)cc3)c2n1 (stereo not shown) [Compound 14],100 to 1000 nM
9,CCCCOc1nc(N)c2[nH]cc(Cc3ccc(CN4CCCCC4)cc3)c2n1 [Compound 5],100 to 1000 nM
10,CCCCOc1nc(N)c2[nH]cc(Cc3ccc(CN4CCC(F)C4)cc3)c2n1 (stereo not shown) [Compound 3],100 to 1000 nM

# The next lines start with the values.
row,EC50,Compound
1,100 to 1000 nM,CCCCOc1nc(N)c2[nH]cc(Cc3ccc(CN4CCC(OC)CC4)cc3)c2n1 [Compound 15]
2,100 to 1000 nM,CCCCOc1nc(N)c2[nH]cc(Cc3ccc(CN4CCCN(C)CC4)cc3)c2n1 [Compound 13]
3,100 to 1000 nM,CCCCOc1nc(N)c2[nH]cc(Cc3ccc(CN4CCN(C(C)C)CC4)cc3)c2n1 [Compound 16]
4,1000 to 50000 nM,CCCCOc1nc(N)c2[nH]cc(Cc3ccc(CN4CCN(C)CC4)cc3)c2n1 [Compound 7]
5,100 to 1000 nM,CCCCOc1nc(N)c2[nH]cc(Cc3ccc(CN(C)C)cc3)c2n1 [Compound 8]
6,100 to 1000 nM,CCCCOc1nc(N)c2[nH]cc(Cc3ccc(CN(CCC)CCC)cc3)c2n1 [Compound 10]
